According to PMC11615764, “Discovery of Ketal‐Ester Ionizable Lipid Nanoparticle with Reduced Hepatotoxicity, Enhanced Spleen Tropism for mRNA Vaccine Delivery” (Advanced Science, 2024):
Entries after “also recorded” stand apart in the source; their conditions may differ. Read-outs that look alike come from different tables or passages of the source.

Assays:
[1] = Encapsulation efficiency of LNPs, RiboGreen accessibility assay; type: physicochemical; conditions: LNP: ionizable lipid/DSPC/Chol/DMG‐PEG2000 50:10:38.5:1.5, N/P 6
Description: (§1) Particle size and polydispersity index (PDI) were determined by dynamic light scattering (DLS), apparent pKa was assessed using 6‐(p‐toluidino)‐2‐naphthalenesulfonic acid (TNS) dye‐binding assay, while encapsulation efficiency was evaluated by a RiboGreen accessibility assay.
(§2) The sizes of the LNP formulations were assessed by DLS (Malvern Zetasizer Pro). Quant‐it RiboGreen assay (ThermoFisher Scientific, Cat# R11490) was used to measure the encapsulation efficiency of the LNP formulations. Briefly, LNPs treated by 1% (v/v) Triton X‐100 (Adamas‐beta) to disrupt LNP structure and release mRNA and untreated LNPs were diluted to a concentration below 2 µg mRNA/mL, then reacted with an equal volume of RiboGreen assay solution at a 200‐fold dilution. Standard curves were generated within the range between 0.0 to 2.0 µg mRNA/mL using a series of free mRNA solutions with or without 1% v/v Triton X‐100. The concentrations of free mRNA and total mRNA in the formulation were determined using bulk fluorescent reading (excitation: 490 nm, emission: 535 nm) of the sample against the corresponding standard curves. The amount of RNA loaded into the LNPs (internal RNA) was calculated by subtracting the values obtained in 1 x TE (external RNA) from 1 x TE + 1% Triton X‐100 (total RNA). Subsequently, the encapsulation efficiency was calculated as the percentage obtained by dividing the amount of internal RNA by the total RNA amount.

[2] = LNP particle size and PDI by dynamic light scattering; type: physicochemical; conditions: LNP: ionizable lipid/DSPC/Chol/DMG‐PEG2000 50:10:38.5:1.5, N/P 6; DLS
Description: as §1, §2

[3] = LNP apparent pKa, TNS dye‐binding assay; type: physicochemical; conditions: apparent pKa of the LNP
Description: Following the formulation methods of SpikeVax and Onpattro, all KEL LNPs were formulated with standard helper lipids: DSPC, Chol, and DMG‐PEG2000 at a molar ratio of Ionizable lipid/DSPC/Chol/DMG‐PEG2000 50:10:38.5:1.5, and at an ionizable lipid to RNA charge ratio (N/P) of 6.^[ [25] ^] Particle size and polydispersity index (PDI) were determined by dynamic light scattering (DLS), apparent pKa was assessed using 6‐(p‐toluidino)‐2‐naphthalenesulfonic acid (TNS) dye‐binding assay, while encapsulation efficiency was evaluated by a RiboGreen accessibility assay.
A series of buffers with pH values varying by 1 between 3.0 and 12.0 were prepared by titrating a solution containing 10 mM citrate, 10 mM phosphate, 10 mM borate, and 150 mM NaCl with 1.0 M HCl and 0.5 M NaOH. LNPs were diluted to 75 µM ionizable lipid, TNS to 6 µM in these buffers. Fluorescence intensity was determined using a Thermo Scientific 3020 spectrophotometer (325 nm excitation/435 nm emission). With the resulting fluorescence values, a sigmoidal plot of fluorescence versus buffer pH was created. The […] inflection point of this curve was the apparent pKa of the LNP formulation.

Balb/c mice = assay: In vivo firefly luciferase mRNA expression, whole‐body bioluminescence; parameters: species or system mouse; conditions: mLuci LNP, female Balb/c mice; for whole‐body luciferase activity after IM administration: IM 0.25 mg/kg, compared with DLin‐MC3‐DMA LNP; for delivery potency (whole‐body luciferase), IV and IM: IV 1 mg/kg and IM 0.25 mg/kg; for whole‐body luciferase activity after IV administration: IV 1 mg/kg
Description: Subsequently, the formulated KEL LNPs were evaluated for their in vivo delivery efficiency (Figure 1C). Wild‐type female Balb/c mice were administered with a single dose of LNPs containing firefly luciferase mRNA (mLuci) via IV or intramuscular (IM) injection (Figure 2A,B), followed by whole‐body luciferase activity assay. A control group receiving DLin‐MC3‐DMA‐based LNP was included in each experiment to facilitate comparisons across experiments.
Balb/c mice were injected intramuscularly (0.25 mg k^−1g) or intravenously (1 mg k^−1g) with LNPs. At 6 or 24 hrs post‐administration, mice were injected intraperitoneally with 150 mg k^−1g of D‐luciferin monosodium salt (ThermoFisher) and imaged using the in vivo imaging system (IVIS Lumina LT Series III) 10 min post intraperitoneally. 1 × PBS (IM: 50 µL; IV: 200 µL) was injected as a negative control.

293T cells [4] = assay: Cell Counting Kit‐8 cytotoxicity assay; conditions: lipid alone at 50 µM, CCK8, 48 h
human liver microsomes = assay: Microsomal stability of ionizable lipids, human; conditions: 0.5 mg protein/mL, NADPH and UDPGA
[5] = Biodegradability of LNPs after IV injection, ionizable lipid in plasma by LC‐MS/MS; conditions: mLuci LNP IV 0.5 mg/Kg, mice
293T cells [6] = conditions: 50 µM
[7] = mouse, in vivo, iv, 0.5 mg/kg

| SMILES | Encapsulation efficiency (%) [1] | PDI [2] | Size (nm) [2] | pKa [3] | whole‐body luciferase activity after IM administration (Balb/c mice) | delivery potency (whole‐body luciferase), IV and IM (Balb/c mice) | whole‐body luciferase activity after IV administration (Balb/c mice; 1 mg/kg) | whole‐body luciferase activity after IV administration (Balb/c mice) | cell viability (293T cells [4]) | remaining after 120 minutes (human liver microsomes) | decline of ionizable lipid level in plasma during the first 6 hrs [5] | ionizable lipid level in plasma after 12 hrs [5] | ionizable lipid level in plasma after 24 hrs [5] | cell viability (293T cells [6]) | decline of ionizable lipid level in plasma during the first 6 hrs [7] |
| --- | --- | --- | --- | --- | --- | --- | --- | --- | --- | --- | --- | --- | --- | --- | --- |
| CCCCCCCCCCCOC(=O)CCCCCC1(CCCCCCCC(=O)OC(CCCCCCCC)CCCCCCCC)OCC(CCN(CC)CC)O1 (stereo not drawn) [KEL6] | 97.5% | 0.06 | 80.34 nm | 6.89 |  |  |  |  |  |  |  |  |  |  |  |
| CCCCCCCCCCCOC(=O)CCCCCC1(CCCCCCCC(=O)OC(CCCCCCCC)CCCCCCCC)OCC(CCCN(C)C)O1 (stereo not drawn) [KEL3] | 89.3% | 0.16 | 98.15 nm | 6.86 | significantly higher levels of luciferase activity than the DLin‐MC3‐DMA LNP | higher potency than KEL1 and KEL4 |  |  |  |  |  |  |  |  |  |
| CCCCCCCCCCCOC(=O)CCCCCC1(CCCCCC(=O)OCCCCCCCCCCC)OCC(CCN(C)C)O1 (stereo not drawn) [KEL11] | 93.3% | 0.34 | 110.3 nm | 6.88 |  | further decrease in potency compared to KEL10 |  |  |  |  |  |  |  |  |  |
| CCCCCCCCCCC(=O)OCCCCCCC1(CCCCCCCCOC(=O)C(CCCCCCCC)CCCCCCCC)OCC(CCN(C)C)O1 (stereo not drawn) [KEL13] | 91.0% | 0.09 | 99.68 nm | 6.44 | significantly higher luciferase activity than DLin‐MC3‐DMA LNP | higher potency than LNPs with either double branched tails (KEL10) or double linear tails (KEL11) | lower potency than those with pKa of 6.7‐7.0 |  |  |  |  |  |  |  |  |
| CCCCCCCCCCCOC(=O)CCCCCC1(CCCCCCCC(=O)OC(CCCCCCCC)CCCCCCCC)OCC(CN(C)C)O1 (stereo not drawn) [KEL1] | 95.0% | 0.12 | 76.72 nm | 5.72 |  | lower delivery efficiency for both IV and IM administration |  |  |  |  |  |  |  |  |  |
| CCCCCCCCCCC(=O)OCCCCCCC1(CCCCCCCC(=O)OC(CCCCCCCC)CCCCCCCC)OCC(CCN(C)C)O1 (stereo not drawn) [KEL12] | 94.9% | 0.04 | 89.54 nm | 6.93 | significantly higher luciferase activity than DLin‐MC3‐DMA LNP | higher potency than LNPs with either double branched tails (KEL10) or double linear tails (KEL11) |  | significantly higher luciferase activity than DLin‐MC3‐DMA LNP by IV |  |  |  |  |  |  |  |
| CCCCCCCCCCCOC(=O)CCCCCN(CCO)CCCCCCCC(=O)OC(CCCCCCCC)CCCCCCCC [SM‐102] |  |  |  |  |  |  |  |  | over 80% | about 80% | reduced faster than (4S)‐KEL12 | < 10 ng/mL | undetectable |  |  |
| CCCCCCCCCCCNC(=O)CCCCCC1(CCCCCCCC(=O)NC(CCCCCCCC)CCCCCCCC)OCC(CCN(C)C)O1 (stereo not drawn) [KEL9] | 98.2% | 0.05 | 125.0 nm | 7.03 |  | significantly reduced delivery potency; also recorded: lower delivery efficiency for both IV and IM administration |  |  |  |  |  |  |  |  |  |
| CCCCCCCCCCCOC(=O)CCCCCC1(CCCCCCCC(=O)OC(CCCCCCCC)CCCCCCCC)OCC(CCCCN(C)C)O1 (stereo not drawn) [KEL4] | 91.0% | 0.16 | 118.1 nm | 7.40 |  | considerable potency |  |  |  |  |  |  |  |  |  |
| CCCCCCCCCCCOC(=O)CCCCCC1(CCCCCCCC(=O)OC(CCCCCCCC)CCCCCCCC)OCC(CCN(C)C)O1 (stereo not drawn) [KEL2] | 92.3% | 0.03 | 70.27 nm | 6.88 | significantly higher levels of luciferase activity than the DLin‐MC3‐DMA LNP | higher potency than KEL1 and KEL4; also recorded: higher potency than LNPs with either double branched tails (KEL10) or double linear tails (KEL11) |  |  |  |  |  |  |  |  |  |
| CCCCCCCCCCCOC(=O)CCCCCC1(CCCCCCCC(=O)OC(CCCCCCCC)CCCCCCCC)OCC(CCN(C)CC)O1 (stereo not drawn) [KEL5] | 96.5% | 0.07 | 78.44 nm | 6.86 |  |  |  |  |  |  |  |  |  |  |  |
| CCCCC/C=C\C/C=C\CCCCCCCCC(CCCCCCCC/C=C\C/C=C\CCCCC)OC(=O)CCCN(C)C [DLin‐MC3‐DMA, reference compound] | 96.7% | 0.15 | 72.70 nm | 6.33 |  |  |  |  |  |  |  |  |  | over 80% | reduced faster than (4S)‐KEL12 |
| CCCCCCCCCCCOC(=O)CCCCCC1(CCCCCCCC(=O)OC(CCCCCCCC)CCCCCCCC)OCC(CCN(C)CCC)O1 (stereo not drawn) [KEL7] | 97.2% | 0.10 | 61.73 nm | 5.91 |  | lower delivery efficiency for both IV and IM administration |  |  |  |  |  |  |  |  |  |
| CCCCCCCCCCCOC(=O)CCCCCC1(CCCCCCCC(=O)OC(CCCCCCCC)CCCCCCCC)OCC(CCN(CC)C(C)C)O1 (stereo not drawn) [KEL8] | 97.6% | 0.03 | 71.68 nm | 6.17 |  |  |  | lower potency than those with pKa of 6.7‐7.0 |  |  |  |  |  |  |  |
| CCCCCCCCC(CCCCCCCC)OC(=O)CCCCCCCC1(CCCCCCCC(=O)OC(CCCCCCCC)CCCCCCCC)OCC(CCN(C)C)O1 (stereo not drawn) [KEL10] | 96.5% | 0.10 | 69.23 nm | 6.09 |  | potency diminished compared to KEL2 |  | lower potency than those with pKa of 6.7‐7.0 |  |  |  |  |  |  |  |
